{
  "source": "patent US12637464B2",
  "about": "“Tetracyclic compounds for treating brain disorders” (The Regents of the University of California, priority 2021, dated 2026)",
  "system": "PSYLI2 cells",
  "experiment": "PsychLight assays (agonist and antagonist mode)",
  "assay_type": "cell-based",
  "details": "FIG. 3C-3E; agonist mode concentration-response, antagonist mode 1 μM",
  "procedure": "PsychLight Assays. Psychlight assays were performed using a previously published method. Briefly, glass bottom 96-well plates were coated with 50 μg/mL of poly-D-lysine overnight at room temperature and then washed with Dulbecco's PBS. PSYLI2 cells were suspended in DMEM containing 10% FBS with 5% penicillin-streptomycin, plated at a density of 40,000 cells/well, and incubated (37° C., 5% CO2) for 24 h prior to each experiment. Immediately before an experiment, stock solutions of drugs in DMSO were diluted 1:100 in imaging media distributed across an empty 96-well plate (treatment plate) following a randomized plate map. The imaging media consisted of 1×HBSS containing […] and […]. […] Data were from 2 plates with 2-3 wells being analyzed per plate. […]\nOnce imaging was complete, the images were exported, and analyzed using a custom Python script. […] The mask was generated by calculating the average fluorescence intensity for the entire image and using that value as a threshold. […] The % ΔF/F values for each well were calculated using the following equation: […]\nOnce imaging was complete, the images were exported, and analyzed using a custom Python script. […] The mask was generated by calculating the average fluorescence intensity for the entire image and using that value as a threshold. […]",
  "data": [
    {"smiles": "CCN(CC)C(=O)[C@H]1C=C2c3cccc4ccn(c34)C[C@@H]2N(C)C1", "note": "[(−)-JRT]", "values": [
      {"measurement": "hallucinogenic potential (psychLight)", "result": "low hallucinogenic potential"}
    ]}
  ]
}
